Test results from US6476026B1, “Compounds and compositions as protease inhibitors” (Axys Pharmaceuticals, Inc., priority 1999, dated 2002).

melting point: 135 to 136 °C
SMILES: N#CCNC(=O)[C@H]1CCCN1C(=O)OCc1ccccc1 [Compound 50, benzyl 2R-cyanomethylcarbamoylpyrrolidine-1-carboxylate]
